Assay results reported in patent publication US20080199518A1, “Controlled-release formulation of piperazine-piperidine antagonists and agonists of the 5-HT1A receptor having enhanced intestinal dissolution” (priority 2006, published 2008).
Where two headings read alike, the source gives them in different places.

Key:
[1] = not told
physchem = assay type: physicochemical
Method: The solubility of one of the compounds described herein, 5-fluoro-8-{4-[4-(6-methoxyquinolin-8-yl)piperazin-1-yl]piperidin-1-yl}quinoline, as a function of pH was determined experimentally. In the study, suspensions of about 0.5-40 mg/mL of the compound were prepared in water and various concentrations of hydrochloric acid and sodium hydroxide. The suspensions were measured for pH after equilibration at ambient temperature. The suspensions were then filtered through a suitable filter for concentrated samples and centrifuged for lower concentrations, with confirmation that the supernatants were particulate-free by laser. The filtrates were then analyzed by HPLC.

Structure (SMILES) | permeability [1] | solubility around neutral pH of the lower gastrointestinal tract (physchem) | water solubility (physchem) | solubility (physchem; pH greater than about six) | solubility (physchem; water, thermodynamic from solid, trisuccinate salt, aqueous, read-out: aqueous solubility) [µg/mL]
COc1cc(N2CCN(C3CCN(c4ccc(F)c5cccnc45)CC3)CC2)c2ncccc2c1 [5-fluoro-8-{4-[4-[(6-methoxyquinolin-8-yl)piperazin-1-yl]piperidin-1-yl}quinoline] | high permeability | less than 1 μg/mL | approximately 0.04 μg/mL | – | –
COc1cc(N2CCN(C3CCN(c4ccc(F)c5cccnc45)CC3)CC2)c2ncccc2c1.O=C(O)CCC(=O)O.O=C(O)CCC(=O)O.O=C(O)CCC(=O)O [5-fluoro-8-{4-[4-(6-methoxyquinolin-8-yl)piperazin-1-yl]piperidin-1-yl}quinoline trisuccinate] | – | – | – | sub-microgram per milliliter level | ~1000
